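Briefly, cells in 96-well plates were exposed to five compound concentrations for 48 h, and endpoints were estimated by linear interpolation. The concentration for 50% growth inhibition is given as GI50. TGI: total growth inhibition.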
Key:
Experiment in all cases: NCI-60 cell line screen, 48 h
SK-MEL-28 melanoma = system: SK-MEL-28 melanoma
OVCAR-5 ovarian = system: OVCAR-5 ovarian
NCI-H522 lung = system: NCI-H522 lung
UACC-257 melanoma = system: UACC-257 melanoma
CCRF-CEM leukemia = system: CCRF-CEM leukemia
SF-539 CNS = system: SF-539 CNS
SF-268 CNS = system: SF-268 CNS
OVCAR-4 ovarian = system: OVCAR-4 ovarian
UACC-62 melanoma = system: UACC-62 melanoma
MALME-3M melanoma = system: MALME-3M melanoma
U251 CNS = system: U251 CNS
OVCAR-3 ovarian = system: OVCAR-3 ovarian
A549 NSCLC = system: A549 NSCLC
HOP-92 NSCLC = system: HOP-92 NSCLC
RPMI-8226 leukemia = system: RPMI-8226 leukemia
NCI-H460 lung = system: NCI-H460 lung
MOLT-4 leukemia = system: MOLT-4 leukemia
MCF7 breast = system: MCF7 breast
MDA-MB-231 breast = system: MDA-MB-231 breast
SW-620 colon = system: SW-620 colon
KM12 colon = system: KM12 colon
BT-549 breast = system: BT-549 breast
SK-OV-3 ovarian = system: SK-OV-3 ovarian
HT29 colon = system: HT29 colon
HL-60(TB) leukemia = system: HL-60(TB) leukemia
SNB-19 CNS = system: SNB-19 CNS
IGROV1 ovarian = system: IGROV1 ovarian
CAKI-1 renal = system: CAKI-1 renal
NCI-H23 lung = system: NCI-H23 lung
RXF 393 renal = system: RXF 393 renal
DU-145 prostate = system: DU-145 prostate
T-47D breast = system: T-47D breast
LOX IMVI melanoma = system: LOX IMVI melanoma
HOP-62 NSCLC = system: HOP-62 NSCLC
MDA-MB-435 = system: MDA-MB-435
OVCAR-8 ovarian = system: OVCAR-8 ovarian
HS 578T breast = system: HS 578T breast
NCI-H226 lung = system: NCI-H226 lung
UO-31 renal = system: UO-31 renal
SF-295 CNS = system: SF-295 CNS
HCC-2998 colon = system: HCC-2998 colon
SK-MEL-5 melanoma = system: SK-MEL-5 melanoma
HCT-15 colon = system: HCT-15 colon
TK-10 renal = system: TK-10 renal
K-562 leukemia = system: K-562 leukemia
SNB-75 CNS = system: SNB-75 CNS
HCT-116 colon = system: HCT-116 colon
COLO 205 colon = system: COLO 205 colon
SK-MEL-2 melanoma = system: SK-MEL-2 melanoma
M14 melanoma = system: M14 melanoma
MDA-MB-468 breast = system: MDA-MB-468 breast
ACHN renal = system: ACHN renal
786-0 renal = system: 786-0 renal
A498 renal = system: A498 renal
SN12C renal = system: SN12C renal
PC-3 prostate = system: PC-3 prostate

Work on `Nc1cccnc1/C=N/NC(=S)NCCNC(=O)c1ccc(-n2nc(-c3ccccc3O)nc2-c2ccccc2O)cc1` yielded a GI50 (SK-MEL-28 melanoma) of 532 nM, a TGI (SK-MEL-28 melanoma) of over 100000 nM and a GI50 (OVCAR-5 ovarian) of 1570 nM. It also gave a TGI (OVCAR-5 ovarian) of over 28400 nM, a GI50 (NCI-H522 lung) of 154 nM and a TGI (NCI-H522 lung) of 798 nM. For the same compound, the GI50 (UACC-257 melanoma) was 838 nM, the TGI (UACC-257 melanoma) was over 20700 nM and the GI50 (CCRF-CEM leukemia) was 186 nM. It also gave a TGI (CCRF-CEM leukemia) of 1210 nM, a GI50 (SF-539 CNS) of 106 nM and a TGI (SF-539 CNS) of 1360 nM. The GI50 (SF-268 CNS) was 557 nM, the TGI (SF-268 CNS) was over 64400 nM and the GI50 (OVCAR-4 ovarian) was 729 nM. For the same compound, the TGI (OVCAR-4 ovarian) was over 100000 nM, the GI50 (UACC-62 melanoma) was 236 nM and the TGI (UACC-62 melanoma) was 1050 nM. The GI50 (MALME-3M melanoma) was 628 nM, the TGI (MALME-3M melanoma) was 8940 nM and the GI50 (U251 CNS) was 305 nM. It also gave a GI50 (OVCAR-3 ovarian) of 366 nM, a TGI (OVCAR-3 ovarian) of 15900 nM and a GI50 (A549 NSCLC) of 1230 nM. For the same compound, the TGI (A549 NSCLC) was over 23800 nM, the GI50 (HOP-92 NSCLC) was 283 nM and the TGI (HOP-92 NSCLC) was 5160 nM. It also gave a GI50 (RPMI-8226 leukemia) of 344 nM, a TGI (RPMI-8226 leukemia) of 2090 nM and a GI50 (NCI-H460 lung) of 396 nM. For the same compound, the TGI (NCI-H460 lung) was 2460 nM, the GI50 (MOLT-4 leukemia) was 300 nM and the TGI (MOLT-4 leukemia) was over 100000 nM. It also gave a GI50 (MCF7 breast) of 189 nM, a TGI (MCF7 breast) of 4900 nM and a GI50 (MDA-MB-231 breast) of 471 nM. It also gave a TGI (MDA-MB-231 breast) of 14900 nM, a GI50 (SW-620 colon) of 648 nM and a TGI (SW-620 colon) of over 100000 nM. The GI50 (KM12 colon) was 480 nM, the TGI (KM12 colon) was 6530 nM and the GI50 (BT-549 breast) was 374 nM. For the same compound, the TGI (BT-549 breast) was 2830 nM, the GI50 (SK-OV-3 ovarian) was 594 nM and the TGI (SK-OV-3 ovarian) was 3510 nM. For the same compound, the GI50 (HT29 colon) was 472 nM, the TGI (HT29 colon) was 2720 nM and the GI50 (HL-60(TB) leukemia) was 261 nM. It also gave a TGI (HL-60(TB) leukemia) of 901 nM, a GI50 (SNB-19 CNS) of 337 nM and a TGI (SNB-19 CNS) of over 100000 nM. For the same compound, the GI50 (IGROV1 ovarian) was 355 nM, the TGI (IGROV1 ovarian) was 11600 nM and the GI50 (CAKI-1 renal) was 1240 nM. It also gave a TGI (CAKI-1 renal) of over 20900 nM, a GI50 (NCI-H23 lung) of 454 nM and a TGI (NCI-H23 lung) of 6970 nM. It also gave a GI50 (RXF 393 renal) of 1040 nM, a TGI (RXF 393 renal) of 4060 nM and a GI50 (DU-145 prostate) of 1600 nM. It also gave a TGI (DU-145 prostate) of over 100000 nM, a GI50 (T-47D breast) of 225 nM and a TGI (T-47D breast) of 1910 nM. It also gave a GI50 (LOX IMVI melanoma) of 331 nM, a TGI (LOX IMVI melanoma) of 1880 nM and a GI50 (HOP-62 NSCLC) of 487 nM. It also gave a TGI (HOP-62 NSCLC) of 5460 nM, a GI50 (MDA-MB-435) of 561 nM and a TGI (MDA-MB-435) of over 100000 nM. The GI50 (OVCAR-8 ovarian) was 418 nM, the GI50 (HS 578T breast) was 232 nM and the TGI (HS 578T breast) was over 100000 nM. It also gave a GI50 (NCI-H226 lung) of 803 nM, a TGI (NCI-H226 lung) of 4850 nM and a GI50 (UO-31 renal) of 1380 nM. It also gave a TGI (UO-31 renal) of 5230 nM, a GI50 (SF-295 CNS) of 541 nM and a TGI (SF-295 CNS) of 2970 nM. For the same compound, the GI50 (HCC-2998 colon) was 533 nM, the TGI (HCC-2998 colon) was 8160 nM and the GI50 (SK-MEL-5 melanoma) was 492 nM. The TGI (SK-MEL-5 melanoma) was 2160 nM, the GI50 (HCT-15 colon) was 1980 nM and the TGI (HCT-15 colon) was 11700 nM. It also gave a GI50 (TK-10 renal) of 1270 nM, a TGI (TK-10 renal) of over 29700 nM and a GI50 (K-562 leukemia) of 115 nM. It also gave a TGI (K-562 leukemia) of over 100000 nM, a GI50 (SNB-75 CNS) of 328 nM and a TGI (SNB-75 CNS) of over 33800 nM. The GI50 (HCT-116 colon) was 305 nM, the TGI (HCT-116 colon) was 6670 nM and the GI50 (COLO 205 colon) was 329 nM. The TGI (COLO 205 colon) was 11700 nM, the GI50 (SK-MEL-2 melanoma) was 765 nM and the TGI (SK-MEL-2 melanoma) was 9460 nM. It also gave a GI50 (M14 melanoma) of 425 nM, a TGI (M14 melanoma) of 2470 nM and a GI50 (MDA-MB-468 breast) of 249 nM. For the same compound, the TGI (MDA-MB-468 breast) was 935 nM, the GI50 (ACHN renal) was 1210 nM and the TGI (ACHN renal) was 18500 nM. It also gave a GI50 (786-0 renal) of 790 nM, a TGI (786-0 renal) of 3730 nM and a GI50 (A498 renal) of 29700 nM. For the same compound, the TGI (A498 renal) was over 100000 nM, the GI50 (SN12C renal) was 494 nM and the TGI (SN12C renal) was 6350 nM. The GI50 (PC-3 prostate) was 376 nM and the TGI (PC-3 prostate) was 13200 nM.
